Drawing on US11186564B2, “Dual NAV1.2/5HT2a inhibitors for treating CNS disorders” (Sunovion Pharmaceuticals Inc., priority 2016, dated 2021), this text covers inhibition and IC50 for 15 compounds.

Molecules are shown by their SMILES. Where two headings read alike, the source gives them in different places.

Test [1] concerns the target human sodium channel NaV1.2 (Homo sapiens, UniProt Q99250). In words: NaV1.2 inhibition, automated patch-clamp (Q-Patch HTX), slow inactivated state (state C). The note with it: hNaV1.2 CHO cells, slow inactivated state; for inhibition at 1 µM: 1 μM compound, read-out: NaV1.2 (% inh), 1 μM; for inhibition at 10 µM: 10 μM compound, read-out: NaV1.2 (% inh), 10 μM; for IC50: read-out: NaV1.2 IC50. Format: cell-based. An outline of the steps: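 CHO K-1 cells stably expressing human NaV1.2, whole-cell automated patch clamp, holding −100 mV; slow-inactivated state (state C) read at a 5 ms step to 0 mV after 10 s at −50 mV and 15 ms at −90 mV. Percent inhibition vs vehicle; IC50 by nonlinear least-squares fit.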
A general note: Patch clamp records ionic current or voltage across a cell membrane.

Test [2] has as its target T1, recombinant human serotonin receptor 5-HT2A (Homo sapiens, UniProt P28223).
T1 construct: expressed in transfected cells; method B: loaded with Ca2+ dye
Kind of test: 5-HT2A antagonist Ca2+ assay in CHO-K1 cells (method A aequorin luminescence / method B FLIPR fluorescence). The note with it: antagonist mode vs EC80 of reference agonist, method A or B. Format: cell-based. In short, it runs like this: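 Method A: CHO-K1 cells co-expressing human 5-HT2A and mitochondrial apoaequorin were given reference agonist at EC80 15 min after compound, with luminescence read. Method B: dye-loaded 5-HT2A CHO-K1 cells were pretreated with compound, then given serotonin at EC80, with FLIPR fluorescence read. IC50s came from nonlinear fits of percent inhibition.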

human sodium channel NaV1.2, sequence (Q99250 whole entry): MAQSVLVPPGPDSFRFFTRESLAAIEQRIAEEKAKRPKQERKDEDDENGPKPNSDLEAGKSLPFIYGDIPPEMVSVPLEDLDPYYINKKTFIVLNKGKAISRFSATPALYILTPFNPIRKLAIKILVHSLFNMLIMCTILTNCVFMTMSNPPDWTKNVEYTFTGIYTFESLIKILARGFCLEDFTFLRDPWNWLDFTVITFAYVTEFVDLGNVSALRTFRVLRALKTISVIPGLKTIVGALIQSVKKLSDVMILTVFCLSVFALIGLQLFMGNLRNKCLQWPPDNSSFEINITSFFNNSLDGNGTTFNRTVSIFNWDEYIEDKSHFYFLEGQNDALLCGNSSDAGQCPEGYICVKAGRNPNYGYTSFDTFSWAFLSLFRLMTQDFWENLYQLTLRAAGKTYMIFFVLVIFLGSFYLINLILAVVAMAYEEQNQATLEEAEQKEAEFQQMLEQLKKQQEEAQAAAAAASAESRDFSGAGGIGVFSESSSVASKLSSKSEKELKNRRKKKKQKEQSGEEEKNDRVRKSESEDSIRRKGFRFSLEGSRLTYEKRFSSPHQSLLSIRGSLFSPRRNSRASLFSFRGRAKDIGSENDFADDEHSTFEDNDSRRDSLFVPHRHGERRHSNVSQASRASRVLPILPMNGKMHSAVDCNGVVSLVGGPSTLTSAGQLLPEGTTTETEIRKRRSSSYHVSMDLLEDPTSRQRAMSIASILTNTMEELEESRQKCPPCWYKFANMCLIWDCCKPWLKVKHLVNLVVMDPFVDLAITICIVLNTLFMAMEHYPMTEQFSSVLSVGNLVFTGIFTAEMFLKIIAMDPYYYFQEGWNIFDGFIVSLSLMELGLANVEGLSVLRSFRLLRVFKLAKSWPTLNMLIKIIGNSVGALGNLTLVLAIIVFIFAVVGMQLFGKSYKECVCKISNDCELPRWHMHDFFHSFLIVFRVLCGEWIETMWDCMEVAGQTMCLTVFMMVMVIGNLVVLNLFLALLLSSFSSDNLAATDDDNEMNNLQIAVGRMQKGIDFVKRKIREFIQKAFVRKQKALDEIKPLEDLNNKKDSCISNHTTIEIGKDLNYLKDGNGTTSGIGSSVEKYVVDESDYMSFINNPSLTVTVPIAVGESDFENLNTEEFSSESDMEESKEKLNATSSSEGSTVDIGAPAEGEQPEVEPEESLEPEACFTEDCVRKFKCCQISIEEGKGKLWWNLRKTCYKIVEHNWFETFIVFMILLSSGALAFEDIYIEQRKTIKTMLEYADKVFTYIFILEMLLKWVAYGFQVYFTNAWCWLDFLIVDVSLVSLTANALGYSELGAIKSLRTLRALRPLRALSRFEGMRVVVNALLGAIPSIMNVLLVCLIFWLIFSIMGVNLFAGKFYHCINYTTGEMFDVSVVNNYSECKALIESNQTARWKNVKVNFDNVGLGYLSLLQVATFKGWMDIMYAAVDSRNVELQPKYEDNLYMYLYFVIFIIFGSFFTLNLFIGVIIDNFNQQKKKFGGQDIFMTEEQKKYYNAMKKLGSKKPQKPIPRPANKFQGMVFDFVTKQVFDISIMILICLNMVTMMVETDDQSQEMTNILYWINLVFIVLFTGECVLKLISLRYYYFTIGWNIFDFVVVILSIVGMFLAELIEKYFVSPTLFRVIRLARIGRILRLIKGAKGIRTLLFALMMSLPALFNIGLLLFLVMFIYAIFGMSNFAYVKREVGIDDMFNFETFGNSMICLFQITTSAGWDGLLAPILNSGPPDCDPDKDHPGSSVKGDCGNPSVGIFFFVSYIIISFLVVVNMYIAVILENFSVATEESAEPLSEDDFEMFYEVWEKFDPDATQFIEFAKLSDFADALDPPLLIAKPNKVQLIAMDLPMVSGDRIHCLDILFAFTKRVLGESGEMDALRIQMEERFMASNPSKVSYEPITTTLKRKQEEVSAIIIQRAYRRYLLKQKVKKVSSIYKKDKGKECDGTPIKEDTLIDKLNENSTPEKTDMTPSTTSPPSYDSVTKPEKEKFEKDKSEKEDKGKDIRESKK
T1 sequence (P28223 whole entry): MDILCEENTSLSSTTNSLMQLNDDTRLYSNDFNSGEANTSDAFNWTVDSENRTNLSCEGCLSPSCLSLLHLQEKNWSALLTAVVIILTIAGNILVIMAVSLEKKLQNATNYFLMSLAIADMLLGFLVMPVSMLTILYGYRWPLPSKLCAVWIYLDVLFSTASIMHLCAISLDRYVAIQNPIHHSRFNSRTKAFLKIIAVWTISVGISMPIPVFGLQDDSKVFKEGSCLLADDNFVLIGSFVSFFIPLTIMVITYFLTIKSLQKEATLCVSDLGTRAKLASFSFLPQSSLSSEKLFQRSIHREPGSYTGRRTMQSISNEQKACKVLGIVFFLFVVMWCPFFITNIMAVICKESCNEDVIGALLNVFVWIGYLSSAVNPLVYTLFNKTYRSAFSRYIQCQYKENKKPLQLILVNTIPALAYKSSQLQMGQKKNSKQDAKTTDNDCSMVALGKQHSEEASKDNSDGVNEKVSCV

A word on the IC50: it is the concentration that inhibits the measured activity by half. As for `O=C1c2ccc(F)cc2CN1CCN1CCC(Oc2ccc(F)cc2)CC1` [Example 188, 5-fluoro-2-(2-(4-(4-fluorophenoxy)piperidin-1-yl)ethyl)isoindolin-1-one], the inhibition at 1 µM in test [1] is 32%. In addition, in test [2] (read-out: 5HT2A IC50), the IC50 came to 0.05 µM.

With `c1ccc2c(c1)CCC1(CCN(CC3CCc4ccccc43)C1)O2` (stereo not drawn) [Example 387, 1′-((2,3-dihydro-1H-inden-1-yl)methyl)spiro[chromane-2,3′-pyrrolidine]], the inhibition at 1 µM in test [1] worked out at 29%. For the same compound, the IC50 in test [2] (read-out: 5HT2A IC50) is 0.03 µM.

As to `O=C1c2ccccc2CN1CCN1CCC(Oc2ccc(F)cc2)CC1` [Example 187, 2-(2-(4-(4-fluorophenoxy)piperidin-1-yl)ethyl)isoindolin-1-one], the inhibition at 1 µM in test [1] stood at 14%. Further, in test [2] (read-out: 5HT2A IC50), the IC50 worked out at 0.07 µM.

As to `Fc1ccc(OC2CCN(CCC3CCc4ncccc43)CC2)cc1` (stereo not drawn) [Example 172, 5-(2-(4-(4-fluorophenoxy)piperidin-1-yl)ethyl)-6,7-dihydro-5H-cyclopenta[b]pyridine], the inhibition at 1 µM in test [1] was 34%. The IC50 in test [2] (read-out: 5HT2A IC50) was 0.12 µM.

Regarding `Fc1ccc(N2CCC3(CCN(CC4Cc5ccccc5C4)C3)C2)cc1` (stereo not drawn) [Example 340, 2-((2,3-dihydro-1H-inden-2-yl)methyl)-7-(4-fluorophenyl)-2,7-diazaspiro[4.4]nonane], in test [1], the inhibition at 1 µM was found to be 25%. Besides, in test [2] (read-out: 5HT2A IC50), the IC50 was 0.1 µM.

Take `O[C@H](CCN1CCC(Oc2ccccc2)CC1)c1ccccc1` [Example 227, (R)-3-(4-phenoxypiperidin-1-yl)-1-phenylpropan-1-ol]: the inhibition at 10 µM in test [1] worked out at 53%. The IC50 in test [2] (read-out: 5HT2A IC50) turned out to be 0.14 µM.

Consider `COc1ccc2c(c1)C(CN1CCC(OCc3ccccc3Cl)CC1)CC2` (stereo not drawn) [Example 244, 4-((2-chlorobenzyl)oxy)-1-((6-methoxy-2,3-dihydro-1H-inden-1-yl)methyl)piperidine], for which the IC50 in test [1] was 160 nM; in test [2] (read-out: 5HT2A IC50), 0.06 µM.

`COc1ccc2c(c1)C(CN1CC3(CC(Oc4ccc(F)cc4)CO3)C1)CC2` (stereo not drawn) [Example 369, 7-(4-fluorophenoxy)-2-((6-methoxy-2,3-dihydro-1H-inden-1-yl)methyl)-5-oxa-2-azaspiro[3.4]octane]: in test [1], the inhibition at 10 µM was determined as 64%. For the same compound, the IC50 in test [2] (read-out: 5HT2A IC50) worked out at 0.29 µM.

Take `Fc1ccc(OC2CCCN(CC3CCc4ccccc43)CC2)cc1` (stereo not drawn) [Example 271, 1-((2,3-dihydro-1H-inden-1-yl)methyl)-4-(4-fluorophenoxy)azepane]: the inhibition at 1 µM in test [1] was determined as 44%. Moreover, the IC50 in test [2] (read-out: 5HT2A IC50) stood at 0.23 µM.

On to `O[C@@H](COC1CCCCC1)CN1C[C@@H]2C[C@H]1CN2Cc1ccccc1` [Example 308, (R)-1-((1S,4S)-5-benzyl-2,5-diazabicyclo[2.2.1]heptan-2-yl)-3-(cyclohexyloxy)propan-2-ol], for which the inhibition at 10 µM in test [1] was determined as 27%. Further, the IC50 in test [2] (read-out: 5HT2A IC50) came to 4.02 µM.

As to `OC(COC1CCCCC1)CN1CCC2(CCN(c3ccccc3)C2)C1` (stereo not drawn) [Example 344, 1-(cyclohexyloxy)-3-(7-phenyl-2,7-diazaspiro[4.4]nonan-2-yl)propan-2-ol], the concentration for half-maximal inhibition (IC50) came to 430 nM in test [1] and 0.11 µM in test [2] (read-out: 5HT2A IC50).

`CO[C@@H](CCN1CCC(Oc2ccccc2)CC1)c1ccccc1` [Example 230, (S)-1-(3-methoxy-3-phenylpropyl)-4-phenoxypiperidine]: in test [1], the inhibition at 10 µM was found to be 87%. Further, in test [2] (read-out: 5HT2A IC50), the half-maximal inhibitory concentration (IC50) is 0.39 µM.

`c1ccc2c(c1)CCC1(CCN(CC3COc4ccccc43)CC1)O2` (stereo not drawn) [Example 409]: the figures for the IC50 in test [1] and in test [2] (read-out: 5HT2A IC50) were 2830 nM and 0.93 µM, respectively.

Consider `COc1ccccc1O[C@@H]1CCN(CCC2CCOc3ccccc32)[C@@H](C)C1` (stereo partly drawn) [Example 182, (2S,4R)-1-(2-(chroman-4-yl)ethyl)-4-(2-methoxyphenoxy)-2-methylpiperidine], for which the inhibition at 1 µM in test [1] was 52%. Also, the IC50 in test [2] (read-out: 5HT2A IC50) was found to be 0.2 µM.

Turning to `O[C@H](COC1CCCCC1)CN1[C@@H]2CC[C@H]1CN(c1ccccc1)C2` [Example 287, (S)-1-(cyclohexyloxy)-3-((1R,5S)-3-phenyl-3,8-diazabicyclo[3.2.1]octan-8-yl)propan-2-ol], the IC50 was found to be 580 nM in test [1] and 0.03 µM in test [2] (5HT2A IC50, μM).
